Experimental data taken from patent publication US12509431B2, “1,4-dihydroquinazolinone compounds and uses thereof” (Edgewise Therapeutics, Inc., priority 2022, dated 2025).

Legend:
Type in all cases: biochemical
Details in all cases: Table 7
[1] = target: T1, Porcine Ventricle myofibrils (left ventricle of Yucatan minipigs) (Sus scrofa, UniProt P79293); assay: Myofibril ATPase assay (PK/LDH NADH-coupled), ventricle myofibrils
T1 construct: Myofibrils from porcine cardiac muscle was isolated from the left ventricle of Yucatan minipigs; tissue Exemplar Genetics; host or cells: left ventricle of Yucatan minipigs
In short: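 Yucatan minipig left-ventricle myofibrils; ATPase measured by PK/LDH-coupled NADH loss at 340 nm, read every 1.5-2 min for 75 min. Slopes normalized to vehicle (100%) and fit to 4-parameter logistic model; EC25 and, for inhibitors, EC50 calculated.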

[2] = system: Porcine Atria myofibrils; assay: Myofibril ATPase assay (PK/LDH NADH-coupled), atria myofibrils
In short: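 Porcine atrial myofibril ATPase followed via PK/LDH-coupled NADH depletion, absorbance at 340 nm read every 1.5-2 min over 75 min. Slopes (mAU/min) normalized to vehicle as 100% and fit to a 4-parameter logistic; EC25% derived, plus EC50% for inhibitors.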

[3] = system: Rabbit Skeletal myofibrils (rabbit psoas muscle); assay: Myofibril ATPase assay (PK/LDH NADH-coupled), skeletal myofibrils
In short: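 Rabbit psoas myofibrils in pCa (PIPES/CaCl2/EGTA, pH 7.0) buffer; ADP coupled via PK/LDH to NADH loss, read at 340 nm every 1.5–2 min for 75 min. Slopes normalized to vehicle (100%) and fit to 4-parameter logistic for EC25, plus EC50 for inhibitors.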

T1 sequence (P79293 whole entry): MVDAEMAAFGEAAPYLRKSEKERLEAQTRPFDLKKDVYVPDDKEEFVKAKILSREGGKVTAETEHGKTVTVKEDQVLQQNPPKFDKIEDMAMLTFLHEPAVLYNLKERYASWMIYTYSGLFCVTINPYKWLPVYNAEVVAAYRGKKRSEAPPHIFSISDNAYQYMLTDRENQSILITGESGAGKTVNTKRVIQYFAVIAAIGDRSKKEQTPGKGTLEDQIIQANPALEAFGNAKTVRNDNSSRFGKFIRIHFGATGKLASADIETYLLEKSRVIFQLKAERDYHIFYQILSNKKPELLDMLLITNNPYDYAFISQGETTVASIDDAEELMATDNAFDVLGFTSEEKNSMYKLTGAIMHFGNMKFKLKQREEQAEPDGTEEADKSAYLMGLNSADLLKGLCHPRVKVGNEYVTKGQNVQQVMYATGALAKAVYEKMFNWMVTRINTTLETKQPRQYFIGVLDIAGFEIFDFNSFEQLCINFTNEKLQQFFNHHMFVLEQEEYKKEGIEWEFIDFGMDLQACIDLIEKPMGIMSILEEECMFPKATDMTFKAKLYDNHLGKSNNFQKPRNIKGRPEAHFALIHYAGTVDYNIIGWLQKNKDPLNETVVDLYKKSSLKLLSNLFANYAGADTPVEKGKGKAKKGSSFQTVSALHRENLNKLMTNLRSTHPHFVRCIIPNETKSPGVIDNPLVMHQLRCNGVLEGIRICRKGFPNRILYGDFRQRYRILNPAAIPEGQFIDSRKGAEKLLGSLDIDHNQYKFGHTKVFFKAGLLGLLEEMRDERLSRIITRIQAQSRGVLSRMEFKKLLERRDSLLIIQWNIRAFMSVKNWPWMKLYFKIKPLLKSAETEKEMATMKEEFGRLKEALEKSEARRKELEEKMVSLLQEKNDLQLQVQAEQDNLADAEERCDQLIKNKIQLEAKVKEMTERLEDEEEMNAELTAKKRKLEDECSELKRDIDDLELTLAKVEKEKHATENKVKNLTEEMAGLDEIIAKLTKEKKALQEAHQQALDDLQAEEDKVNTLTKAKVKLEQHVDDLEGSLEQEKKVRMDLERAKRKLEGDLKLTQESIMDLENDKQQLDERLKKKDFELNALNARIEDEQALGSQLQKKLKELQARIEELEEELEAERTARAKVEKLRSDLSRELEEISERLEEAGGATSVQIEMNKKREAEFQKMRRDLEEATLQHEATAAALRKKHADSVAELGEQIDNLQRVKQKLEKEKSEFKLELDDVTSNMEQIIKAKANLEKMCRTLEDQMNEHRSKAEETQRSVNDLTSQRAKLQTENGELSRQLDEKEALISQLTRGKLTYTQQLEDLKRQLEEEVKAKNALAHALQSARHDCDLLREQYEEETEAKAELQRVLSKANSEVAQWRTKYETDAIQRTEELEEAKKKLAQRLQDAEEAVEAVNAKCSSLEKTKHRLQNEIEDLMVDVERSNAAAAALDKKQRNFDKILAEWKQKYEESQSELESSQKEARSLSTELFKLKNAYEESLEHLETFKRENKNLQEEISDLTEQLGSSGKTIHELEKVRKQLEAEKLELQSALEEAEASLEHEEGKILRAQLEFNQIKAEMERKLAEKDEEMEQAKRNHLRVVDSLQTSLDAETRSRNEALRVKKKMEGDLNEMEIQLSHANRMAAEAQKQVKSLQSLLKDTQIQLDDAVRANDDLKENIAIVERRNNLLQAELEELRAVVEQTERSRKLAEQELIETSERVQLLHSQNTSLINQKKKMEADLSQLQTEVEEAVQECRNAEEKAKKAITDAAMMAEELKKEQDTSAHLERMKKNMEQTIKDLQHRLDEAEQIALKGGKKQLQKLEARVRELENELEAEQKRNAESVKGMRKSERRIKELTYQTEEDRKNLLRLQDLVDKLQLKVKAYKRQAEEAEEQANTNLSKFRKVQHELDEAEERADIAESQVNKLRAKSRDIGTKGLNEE

Porcine Ventricle IC25 [1] [µM]	Porcine Atria IC25 [2] [µM]	Rabbit Psoas IC25 [3] [µM]	Compound
100	100.00	100	C[C@@H](NC(=O)CN1Cc2nc(C#N)ccc2NC1=O)c1ncc(F)cc1F [Compound N58]
100	6.80	100	C[C@H](NC(=O)CN1Cc2nc(C#N)ccc2NC1=O)c1ncc(F)cc1F [Compound N59]
81.4	1.15	1.385	C[C@H](NC(=O)CN1Cc2nc(C#N)ccc2NC1=O)c1ccc(F)cc1F [Compound N60, (S)-2-(6-Cyano-2-oxo-1,4-dihydropyrido[3,2-d]pyrimidin-3(2H)-yl)-N-(1-(2,4-difluorophenyl)ethyl)acetamide]
100	100.00	100	C[C@@H](NC(=O)CN1Cc2c(ccnc2C#N)NC1=O)c1ncc(F)cc1F [Compound N61]
5.161	0.97	0.1508	C[C@H](NC(=O)CN1Cc2c(ccnc2C#N)NC1=O)c1ncc(F)cc1F [Compound N62]
100	100.00	100	C[C@@H](NC(=O)CN1Cc2c(F)cncc2NC1=O)c1ncc(F)cc1F [Compound N63]
100	25.37	16.71	C[C@H](NC(=O)CN1Cc2c(F)cncc2NC1=O)c1ncc(F)cc1F [Compound N64]
100	100.00	100	CC(NC(=O)CN1Cc2c(ccnc2C(N)=O)NC1=O)c1ncc(F)cc1F (stereo not drawn) [Compound N65]
100	29.35	0.3112	C[C@H](NC(=O)CN1Cc2c(ccnc2OC2COC2)NC1=O)c1ccc(F)cc1F [Compound N66]
100	100.00	100	COc1ccc2c(n1)C1(CC1)N(CC(=O)N[C@H](C)c1ncc(F)cc1F)C(=O)N2 [Compound N67]
1.833	0.13	0.0442	COc1ccc2c(n1)C1(CC1)N(CC(=O)N[C@@H](C)c1ncc(F)cc1F)C(=O)N2 [Compound N68]
100	100.00	100	C[C@@H](NC(=O)CN1Cc2cc(F)cnc2NC1=O)c1ncc(F)cc1F [Compound N69]
100	100.00	100	C[C@H](NC(=O)CN1Cc2cc(F)cnc2NC1=O)c1ncc(F)cc1F [Compound N70]
100	36.26	2.804	C[C@H](NC(=O)CN1Cc2cc(F)cnc2NC1=O)c1ccc(F)cc1F [Compound N71, N-[(1S)-1-(2,4-Difluorophenyl)ethyl]-2-{6-fluoro-2-oxo-1H,4H-pyrido[2,3-d]pyrimidin-3-yl}acetamide]
39.96	3.14	0.4483	C[C@H](NC(=O)CN1Cc2c(F)cncc2NC1=O)c1ccc(F)cc1F [Compound N72, N-[(1S)-1-(2,4-Difluorophenyl)ethyl]-2-{5-fluoro-2-oxo-1H,4H-pyrido[3,4-d]pyrimidin-3-yl}acetamide]
100	100.00	35.6	C[C@@H](NC(=O)CN1Cc2c(ccnc2C(F)(F)F)NC1=O)c1ccc(C#N)cc1F [Compound N73]
1.559	0.54	0.07565	C[C@H](NC(=O)CN1Cc2c(ccnc2C(F)(F)F)NC1=O)c1ccc(C#N)cc1F [Compound N74]
100	100.00	100	C[C@@H](NC(=O)CN1Cc2cc(Cl)cnc2NC1=O)c1ncc(F)cc1F [Compound N75]
100	100.00	100	C[C@H](NC(=O)CN1Cc2cc(Cl)cnc2NC1=O)c1ncc(F)cc1F [Compound N76]
24.08	2.11	2.441	C[C@H](NC(=O)CN1C(=O)Nc2cccnc2[C@H]1C)c1ccc(F)cc1F [Compound N77, N—((S)-1-(2,4-difluorophenyl)ethyl)-2-((R)-4-methyl-2-oxo-1,4-dihydropyrido[3,2-d]pyrimidin-3(2H)-yl)acetamide]

Porcine Ventricle IC25 [1] [µM]	Porcine Atria IC25 [2] [µM]	Rabbit Psoas IC25 [3] [µM]	Compound
31.94	26.68	11.14	C[C@H](NC(=O)CN1C(=O)Nc2cccnc2[C@@H]1C)c1ccc(F)cc1F [Compound N78, N—((S)-1-(2,4-difluorophenyl)ethyl)-2-((S)-4-methyl-2-oxo-1,4-dihydropyrido [3,2-d]pyrimidin-3(2H)-yl)acetamide]
100	100.00	100	C[C@@H](NC(=O)CN1Cc2c(ccnc2C(F)(F)F)NC1=O)c1ncc(F)cc1F [Compound N79]
100	8.03	4.79	C[C@H](NC(=O)CN1Cc2c(ccnc2C(F)(F)F)NC1=O)c1ncc(F)cc1F [Compound N80]
0.545	0.24	0.04549	C[C@H](NC(=O)CN1Cc2c(ccnc2C#N)NC1=O)c1ccc(F)cc1F [Compound N81]
100	100.00	100	C[C@H](NC(=O)CN1Cc2cc(Cl)cnc2NC1=O)c1ccc(F)cc1F [Compound N82]
100	0.74	1.802	C[C@H](NC(=O)[C@H](C)N1Cc2ncccc2NC1=O)c1ccc(F)cc1F [Compound N83]
100	3.69	10.25	C[C@H](NC(=O)[C@@H](C)N1Cc2ncccc2NC1=O)c1ccc(F)cc1F [Compound N84]
100	18.87	4.254	C[C@H](NC(=O)CN1C(=O)Nc2ccncc2[C@H]1C)c1ccc(F)cc1F [Compound N85]
100	30.96	10.83	C[C@H](NC(=O)CN1C(=O)Nc2ccncc2[C@@H]1C)c1ccc(F)cc1F [Compound N86]
0.1682	0.03	0.0571	COc1ccc2c(n1)C1(CC1)N(CC(=O)N[C@@H](C)c1ccc(F)cc1F)C(=O)N2 [Compound N87, N-[(1S)-1-(2,4-Difluorophenyl)ethyl]-2-{6′-methoxy-2′-oxo-1′H-spiro[cyclopropane-1,4′-pyrido[3,2-d]pyrimidin]-3′-yl}acetamide]
0.7484	0.13	0.1726	C[C@H](NC(=O)CN1C(=O)Nc2cccnc2C12CC2)c1ccc(F)cc1F [Compound N88]
100	100.00	100	CC(C)C[C@@H](C(=O)N[C@@H](C)c1ccc(F)cc1F)N1Cc2nc(F)ccc2NC1=O [Compound N89]
100	100.00	49.64	CC(C)C[C@H](C(=O)N[C@@H](C)c1ccc(F)cc1F)N1Cc2nc(F)ccc2NC1=O [Compound N90]
100	56.88	17.09	Cc1ncc2c(n1)CN(CC(=O)N[C@@H](C)c1ccc(F)cc1F)C(=O)N2 [Compound N91]
100	100.00	100	C[C@H](NC(=O)[C@H](C)N1Cc2nc(F)ccc2NC1=O)c1ccccc1F [Compound N92]
100	1.66	100	C[C@H](NC(=O)[C@@H](C)N1Cc2nc(F)ccc2NC1=O)c1ccccc1F [Compound N93]
0.4952	0.22	0.0739	C[C@H](NC(=O)[C@H](C)N1Cc2c(ccnc2Br)NC1=O)c1ccc(F)cc1F [Compound N94]
5.968	3.69	0.9565	C[C@H](NC(=O)[C@@H](C)N1Cc2c(ccnc2Br)NC1=O)c1ccc(F)cc1F [Compound N95]
100	100.00	100	C[C@H](NC(=O)[C@H](Cc1ccccc1)N1Cc2nc(F)ccc2NC1=O)c1ccc(F)cc1F [Compound N96]
100	100.00	90.25	C[C@H](NC(=O)[C@@H](Cc1ccccc1)N1Cc2nc(F)ccc2NC1=O)c1ccc(F)cc1F [Compound N97]
